System: Male NMRI (SPF) mice
Assay: Fe utilization in mouse model (low-iron diet, oral administration by stomach tube)
Assay type: in vivo
Conditions: for Utilization n 15 d: mice fed low-iron diet (approx. 5 ppm iron) approx. 3 weeks, 2 mg iron/kg body weight/day by stomach tube, days 1-5 and 8-12, utilization on day 15 calculated from hemoglobin increase and body weight increase; for iron utilization compared to the pyridine comparative compound: same mouse model, comparison in words with the comparative example
Protocol: The excellent Fe utilizations that can be accomplished through the Fe complexes according to the invention were measured by means of the following mouse model. Male NMRI (SPF) mice (approximately 3 weeks old) were fed a low-iron diet (approx. 5 ppm iron) for approximately 3 weeks. The iron complexes were then administered to them by means of a stomach tube (2 mg iron/kg body weight/day) for 2 times 5 days, with an interruption of 2 days (days 1-5 and 8-12). 6 mice were the control group (negative control) and were administered with water instead. Utilization on day 15 was calculated from the hemoglobin increase and the body weight increase in accordance with the formula [formula]

| Substance | Utilization n 15 d | iron utilization compared to the pyridine comparative compound |
| --- | --- | --- |
| Tris-(3,5,6-trimethylpyrazine-2-ol-1-oxide)iron(III)-complex [Example 4] | 32 abs. % | improved iron utilization |
| Tris-(3,6-dimethylpyrazine-2-ol-1-oxide)-iron(III)-complex [Example 10] | 58 abs. % | improved iron utilization |
| Tris-(3-methylpyrazine-2-ol-1-oxide)iron(III)-complex [Example 3] | 77 abs. % | improved iron utilization |
| Tris-(5,6-dimethyl pyrazine-2-ol 1-oxide)iron(III)-complex [Example 2] | 61 abs. % | improved iron utilization |
| Tris-(5-methylpyrazine-2-ol-1-oxide)iron(III)-complex [Example 5] | 37 abs. % | improved iron utilization |
| Tris-(pyrazine-2-ol 1-oxide)iron(III)-complex [Example 1] | 56 abs. % | significantly improved iron utilization |
